From US20240182531A1, “KV1.3 Blockers” (priority 2021, published 2024)
“And” between values parts separate entries of the source, which are not always exact repeats. Equal entries are not always repeated. Where two headings read alike, the source gives them in different places. Where a SMILES comes first, the peptide text is derived from it. Bridges are numbered along the chain shown (N, C = ends). [ ]: non-standard residue; d: D form. Nle = CCCC[C@H](N)C(=O)O

How the values were obtained:
[1] = system: Human peripheral blood mononuclear cells (PBMCs); format: cell-based; settings: geometric mean, at least 6 replicates, Example 5b; read-out: anti-CD3 PBMC/IL-2 IC50
Procedure: Human peripheral blood mononuclear cells (PBMCs) were used to assess the effects of Kv1.3 blocker reference compounds on T-cell activation as determined by IL-2 release after stimulation with anti-CD3.
Human PBMCs were obtained from Precision for Medicine (Frederick, MD). Cells from 5 donors were used. Plate-bound anti-CD3 was used to stimulate bulk T cells in the PBMC preparations. Briefly, 96-well plates were coated with anti-CD3 antibody for app. 16 hours at 5° C., using 50 μl of a 1 μg/ml anti-CD3 solution diluted in PBS. Thereafter the plates were washed twice.
Kv1.3 blockers were subsequently diluted in medium (RPMI 1640 with Glutamax-I containing, 10% v/v Fetal Bovine Serum, 1% v/v penicillin-streptomycin Solution) and added in a volume of 50 μl. The compounds indicated in Table 8b were used at concentrations ranging from 0.3 pM to 1000 nM (half log dilutions, starting concentrations varying).
Finally, 50.000 PBMCs in the same medium were added to each well in a volume of 50 μl, giving a final volume of 100 μl per well. The plates were incubated for 20-24 hours in a 37° C./5% CO2 incubator. After centrifugation of the plates, 25 μl supernatant was transferred to IL-2 detection plates (MSD Human IL-2 Tissue Culture Kit, cat #K151AHB-2) and IL-2 was measures as described by the manufacturer (Meso Scale Discovery, Rockville, Maryland, USA).
All values derive from at least 6 replicates.

human Kv1.2 = molecular target: T1, human Kv1.2 (Homo sapiens, UniProt P16389); assay: cell-based; settings: ratio of patch clamp IC50 values
T1 construct: expressed in transfected cells; host or cells: CHO
T1 sequence (P16389 whole entry): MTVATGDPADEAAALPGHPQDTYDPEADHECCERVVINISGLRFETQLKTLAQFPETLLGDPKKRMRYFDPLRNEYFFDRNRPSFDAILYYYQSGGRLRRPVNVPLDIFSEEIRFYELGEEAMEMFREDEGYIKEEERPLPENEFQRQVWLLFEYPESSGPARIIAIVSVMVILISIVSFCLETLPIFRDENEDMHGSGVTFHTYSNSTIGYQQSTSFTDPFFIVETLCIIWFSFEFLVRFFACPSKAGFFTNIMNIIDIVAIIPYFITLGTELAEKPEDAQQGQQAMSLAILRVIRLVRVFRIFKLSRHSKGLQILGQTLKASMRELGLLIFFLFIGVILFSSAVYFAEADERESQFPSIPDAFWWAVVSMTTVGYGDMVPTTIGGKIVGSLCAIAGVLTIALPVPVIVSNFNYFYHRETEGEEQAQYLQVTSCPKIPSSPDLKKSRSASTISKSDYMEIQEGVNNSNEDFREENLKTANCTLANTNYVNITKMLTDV

Rat whole blood = Rat whole blood (Rattus norvegicus, UniProt P15384); format: cell-based; settings: IL-17A release, thapsigargin, 24 Hr, at least 2 replicates
Chain of Rat whole blood (P15384 whole entry): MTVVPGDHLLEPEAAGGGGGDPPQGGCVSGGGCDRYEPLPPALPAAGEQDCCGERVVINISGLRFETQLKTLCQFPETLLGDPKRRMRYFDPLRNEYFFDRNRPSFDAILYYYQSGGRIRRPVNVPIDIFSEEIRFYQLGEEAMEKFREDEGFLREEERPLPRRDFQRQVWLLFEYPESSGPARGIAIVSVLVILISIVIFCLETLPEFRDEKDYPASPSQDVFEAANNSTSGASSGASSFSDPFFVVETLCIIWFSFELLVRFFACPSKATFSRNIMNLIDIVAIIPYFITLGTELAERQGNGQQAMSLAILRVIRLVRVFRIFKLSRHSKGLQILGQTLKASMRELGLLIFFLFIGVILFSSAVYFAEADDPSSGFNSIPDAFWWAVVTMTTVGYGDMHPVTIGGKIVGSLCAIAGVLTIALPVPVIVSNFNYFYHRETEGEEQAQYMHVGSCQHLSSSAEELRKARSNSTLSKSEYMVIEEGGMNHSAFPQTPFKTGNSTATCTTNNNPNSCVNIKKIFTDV

human Kv1.1 = molecular target: T2, human Kv1.1 (Homo sapiens, UniProt Q09470); assay: cell-based; settings: ratio of patch clamp IC50 values
T2 construct: expressed in transfected cells; host or cells: CHO
T2 sequence (Q09470 whole entry): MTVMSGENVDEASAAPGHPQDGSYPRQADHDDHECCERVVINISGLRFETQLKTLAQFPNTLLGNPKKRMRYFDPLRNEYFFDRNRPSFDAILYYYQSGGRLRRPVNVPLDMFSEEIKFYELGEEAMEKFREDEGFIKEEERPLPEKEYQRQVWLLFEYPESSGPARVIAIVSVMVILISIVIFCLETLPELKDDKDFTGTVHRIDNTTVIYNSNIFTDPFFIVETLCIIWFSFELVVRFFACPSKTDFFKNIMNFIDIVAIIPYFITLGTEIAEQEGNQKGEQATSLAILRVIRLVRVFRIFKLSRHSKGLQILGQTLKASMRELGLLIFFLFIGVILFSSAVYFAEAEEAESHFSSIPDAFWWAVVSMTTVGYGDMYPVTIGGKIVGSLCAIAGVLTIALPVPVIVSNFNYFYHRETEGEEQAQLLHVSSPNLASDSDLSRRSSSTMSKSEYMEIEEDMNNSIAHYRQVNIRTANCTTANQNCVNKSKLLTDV

[2] = system: KLH ear inflammation model in rats; format: in vivo, rat; settings: +/− SD
human Kv1.6 = molecular target: T3, human Kv1.6 (Homo sapiens, UniProt P17658); assay: cell-based; settings: ratio of patch clamp IC50 values
T3 construct: expressed in transfected cells; host or cells: CHO
T3 sequence (P17658 whole entry): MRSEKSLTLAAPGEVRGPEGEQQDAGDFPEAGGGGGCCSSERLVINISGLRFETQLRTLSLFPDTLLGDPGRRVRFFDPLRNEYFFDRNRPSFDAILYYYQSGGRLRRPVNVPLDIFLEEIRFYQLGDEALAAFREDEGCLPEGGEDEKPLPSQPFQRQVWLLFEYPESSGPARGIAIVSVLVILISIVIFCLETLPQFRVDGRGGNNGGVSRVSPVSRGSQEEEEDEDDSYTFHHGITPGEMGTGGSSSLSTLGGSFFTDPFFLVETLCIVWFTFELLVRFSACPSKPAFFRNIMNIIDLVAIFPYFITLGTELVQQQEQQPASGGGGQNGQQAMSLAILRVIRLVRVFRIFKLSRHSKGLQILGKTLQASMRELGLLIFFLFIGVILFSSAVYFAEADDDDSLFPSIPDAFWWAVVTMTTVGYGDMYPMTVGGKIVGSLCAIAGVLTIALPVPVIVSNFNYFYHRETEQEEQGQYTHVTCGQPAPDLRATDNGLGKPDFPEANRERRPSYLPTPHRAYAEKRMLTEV

human Kv1.3 = molecular target: T4, human Kv1.3 (Homo sapiens, UniProt P22001); assay: cell-based; settings: CHO cells, QPatch whole-cell; read-out: Potency IC50 Kv1.3
T4 construct: expressed in transfected cells; host or cells: CHO
T4 sequence (P22001 whole entry): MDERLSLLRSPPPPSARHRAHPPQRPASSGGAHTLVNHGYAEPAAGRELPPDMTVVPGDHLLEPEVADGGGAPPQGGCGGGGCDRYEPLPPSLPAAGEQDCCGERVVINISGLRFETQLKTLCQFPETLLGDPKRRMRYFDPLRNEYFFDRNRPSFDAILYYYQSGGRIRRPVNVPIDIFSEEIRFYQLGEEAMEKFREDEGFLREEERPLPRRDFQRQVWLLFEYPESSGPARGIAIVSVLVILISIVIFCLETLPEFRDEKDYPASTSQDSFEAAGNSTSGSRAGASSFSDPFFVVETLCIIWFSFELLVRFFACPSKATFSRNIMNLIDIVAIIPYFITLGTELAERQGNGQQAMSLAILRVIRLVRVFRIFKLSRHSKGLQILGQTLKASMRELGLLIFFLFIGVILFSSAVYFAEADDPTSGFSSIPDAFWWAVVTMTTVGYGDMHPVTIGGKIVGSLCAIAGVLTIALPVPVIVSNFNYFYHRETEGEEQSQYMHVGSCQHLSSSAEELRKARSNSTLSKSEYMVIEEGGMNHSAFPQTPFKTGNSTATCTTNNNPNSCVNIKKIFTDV

[3] = 50 nmol/kg SC 24 hrs prior to KLH ear challenge
[4] = 70 nmol/kg SC 24 hrs prior to KLH ear challenge

| SMILES | IC50 [1] [nM] | Selectivity ratio Kv1.2/Kv1.3 (human Kv1.2) | IC50 (Rat whole blood) [nM] | Selectivity ratio Kv1.1/Kv1.3 (human Kv1.1) | % inhibition of ear thickness (AUC of Δ ear thickness 0-48 hours) [2, 3] | % inhibition of ear thickness (AUC of Δ ear thickness 0-48 hours) [2, 4] | Selectivity ratio Kv1.6/Kv1.3 (human Kv1.6) | IC50 (human Kv1.3) [nM] | % inhibition of ear thickness (AUC of Δ ear thickness 0-48 hours) ([2]; 100 nmol/kg SC 24 hrs prior to KLH ear challenge) |
| --- | --- | --- | --- | --- | --- | --- | --- | --- | --- |
| CC[C@H](C)[C@@H]1NC(=O)[C@H](C)NC(=O)[C@H](CCCCN)NC(=O)[C@H](CC(C)C)NC(=O)[C@@H]2CSSC[C@@H](C(=O)N[C@@H](Cc3ccc(O)cc3)C(=O)N3CCC[C@H]3C(=O)N[C@@H](CCCNC(=N)N)C(=O)O)NC(=O)[C@H](CCCCN)NC(=O)[C@@H]3CSSC[C@H](NC(=O)[C@H](CCC(=O)O)NC(=O)[C@H](C(C)C)NC(=O)[C@H](CO)NC(=O)[C@H](C)NC(=O)[C@H](CO)NC(=O)[C@@H](NC(=O)[C@H](CCCNC(=N)N)NC(=O)[C@H](CCSC)NC(=O)[C@H](CC(=O)O)NC(=O)[C@H](CCSC)NC(=O)[C@@H](N)CC(N)=O)CSSC[C@H](NC(=O)[C@H](CCCCN)NC(=O)CNC(=O)[C@H](Cc4ccccc4)NC(=O)[C@H]([C@@H](C)CC)NC(=O)[C@H](CO)NC(=O)CNC1=O)C(=O)N[C@@H](CCSC)C(=O)N[C@@H](CC(N)=O)C(=O)N[C@@H](CCCCN)C(=O)N[C@@H](CCCCN)C(=O)N3)C(=O)N[C@@H](CCCCN)C(=O)N[C@@H](CCC(N)=O)C(=O)N[C@@H](CCCCN)C(=O)N2 [compound 17] (H-NMDMRCSASVECKQKCLKAIGSIFGKCMNKKCKCYPR-OH; disulfide 6-27, 12-32, 16-34) | 0.06 | 1540 | 1 | >11300 | 37.3 (+/−13.8) % | 38.8 (+/−9.7) % and 25.0 (+/−12.5) % | >11300 |  |  |
| CC[C@H](C)[C@@H]1NC(=O)[C@H](C)NC(=O)[C@H](CCCCN)NC(=O)[C@H](CC(C)C)NC(=O)[C@@H]2CSSC[C@@H](C(=O)N[C@@H](Cc3ccc(O)cc3)C(=O)N3CCC[C@H]3C(=O)N[C@@H](CCCNC(=N)N)C(N)=O)NC(=O)[C@H](CCCCN)NC(=O)[C@@H]3CSSC[C@H](NC(=O)[C@H](CCC(=O)O)NC(=O)[C@H](C(C)C)NC(=O)[C@H](CO)NC(=O)[C@H](C)NC(=O)[C@H](CCCCN)NC(=O)[C@@H](NC(=O)[C@H](CCCNC(=N)N)NC(=O)[C@H](CCSC)NC(=O)[C@H](CC(=O)O)NC(=O)[C@H](CCSC)NC(=O)[C@@H](N)CC(N)=O)CSSC[C@H](NC(=O)[C@H](CCCCN)NC(=O)CNC(=O)[C@H](Cc4ccccc4)NC(=O)[C@H]([C@@H](C)CC)NC(=O)[C@H](CO)NC(=O)CNC1=O)C(=O)N[C@@H](CCSC)C(=O)N[C@@H](CC(N)=O)C(=O)N[C@@H](CCCCN)C(=O)N[C@@H](CCCCN)C(=O)N3)C(=O)N[C@@H](CCCCN)C(=O)N[C@@H](CCC(N)=O)C(=O)N[C@@H](CCCCN)C(=O)N2 [compound 29] (H-NMDMRCKASVECKQKCLKAIGSIFGKCMNKKCKCYPR-NH2; disulfide 6-27, 12-32, 16-34) |  | 761 |  | >34200 |  |  | 4144 | 0.09 |  |
| CCCC[C@H](NC(=O)[C@@H]1CCCN1)C(=O)N[C@@H](CC(=O)O)C(=O)N[C@@H](CCCC)C(=O)N[C@@H](CCCNC(=N)N)C(=O)N[C@H]1CSSC[C@@H]2NC(=O)[C@H](CCCCN)NC(=O)CNC(=O)[C@H](Cc3ccccc3)NC(=O)[C@H]([C@@H](C)CC)NC(=O)[C@H](CO)NC(=O)CNC(=O)[C@H]([C@@H](C)CC)NC(=O)[C@H](C)NC(=O)[C@H](CCCCN)NC(=O)[C@H](CC(C)C)NC(=O)[C@@H]3CSSC[C@@H](C(=O)N[C@@H](Cc4ccc(O)cc4)C(=O)N4CCC[C@H]4C(=O)N[C@@H](CCCNC(=N)N)C(N)=O)NC(=O)[C@H](CCCCN)NC(=O)[C@H](CSSC[C@H](NC(=O)[C@H](CCC(=O)O)NC(=O)[C@H](C(C)C)NC(=O)[C@H](CO)NC(=O)[C@H](C)NC(=O)[C@H](CO)NC1=O)C(=O)N[C@@H](CCCCN)C(=O)N[C@@H](CCC(N)=O)C(=O)N[C@@H](CCCCN)C(=O)N3)NC(=O)[C@H](CCCCN)NC(=O)[C@H](CCCCN)NC(=O)[C@H](CC(N)=O)NC(=O)[C@H](CCCC)NC2=O [compound 45] (H-P[Nle]D[Nle]RCSASVECKQKCLKAIGSIFGKC[Nle]NKKCKCYPR-NH2; disulfide 6-27, 12-32, 16-34) | 0.03 | 5362 | 0.98 | >17100 | 22.2 (+/−11.1) % | 46.9 (+/−10.9) % and 27.7 (+/−11.5) % | >17100 |  | 41.9 (+/−12.5) % |
| CCCC[C@H](NC(=O)[C@H](CC(=O)O)NC(=O)[C@H](CCCC)NC(=O)[C@@H](N)CO)C(=O)N[C@@H](CCCNC(=N)N)C(=O)N[C@H]1CSSC[C@@H]2NC(=O)[C@H](CCCCN)NC(=O)CNC(=O)[C@H](Cc3ccccc3)NC(=O)[C@H]([C@@H](C)CC)NC(=O)[C@H](CO)NC(=O)CNC(=O)[C@H]([C@@H](C)CC)NC(=O)[C@H](C)NC(=O)[C@H](CCCCN)NC(=O)[C@H](CC(C)C)NC(=O)[C@@H]3CSSC[C@@H](C(=O)N[C@@H](Cc4ccc(O)cc4)C(=O)N4CCC[C@H]4C(=O)N[C@@H](CCCNC(=N)N)C(N)=O)NC(=O)[C@H](CCCNC(=N)N)NC(=O)[C@H](CSSC[C@H](NC(=O)[C@H](CCC(=O)O)NC(=O)[C@H](C(C)C)NC(=O)[C@H](CO)NC(=O)[C@H](C)NC(=O)[C@H](CO)NC1=O)C(=O)N[C@@H](CCCCN)C(=O)N[C@@H](CCC(N)=O)C(=O)N[C@@H](CCCCN)C(=O)N3)NC(=O)[C@H](CCCCN)NC(=O)[C@H](CCCCN)NC(=O)[C@H](CC(N)=O)NC(=O)[C@H](CCSC)NC2=O [compound 75] (H-S[Nle]D[Nle]RCSASVECKQKCLKAIGSIFGKCMNKKCRCYPR-NH2; disulfide 6-27, 12-32, 16-34) |  |  | 0.86 |  |  |  |  | 0.13 |  |
